{
  "source": "patent EP3845222A1",
  "about": "“MICROENCAPSULATED FORMULATION COMPRISING DIOSMIN, TROXERUTIN AND COUMARINS, COMPOSITIONS THEREOF AND USE THEREOF FOR THE TREATMENT OF CIRCULATORY DISORDERS” (Pharma Line S.r.l., priority 2019, dated 2021)",
  "system": "ligated saphenous vein (LSV)",
  "assay": "In vivo ligated saphenous vein damage: histopathological examination (H&E)",
  "design": "species or system NMRI mice",
  "conditions": "control (non-ligated) mice treated for 7 days; also no signs of tissue inflammation",
  "data": [
    {"compound": "CCC(C)(C)C(=O)O[C@H]1C[C@@H](C)C=C2C=C[C@H](C)[C@H](CC[C@@H]3C[C@@H](O)CC(=O)O3)[C@H]21", "note": "[Simvastatin]", "values": [
      {"measurement": "changes in the lumen of the vessel", "value": "no significant changes"}
    ]}
  ]
}
